In patent US20050288503A1, “Novel compounds” (priority 2002, published 2005):

molecular target: CSBP/p38 (Homo sapiens, UniProt Q16539); experiment: CSBP/p38 Kinase Assay (32P transfer from ATP to EGFR-derived T669 peptide); assay type: biochemical; settings: retested at 67 uM
Sequence (Q16539 whole entry): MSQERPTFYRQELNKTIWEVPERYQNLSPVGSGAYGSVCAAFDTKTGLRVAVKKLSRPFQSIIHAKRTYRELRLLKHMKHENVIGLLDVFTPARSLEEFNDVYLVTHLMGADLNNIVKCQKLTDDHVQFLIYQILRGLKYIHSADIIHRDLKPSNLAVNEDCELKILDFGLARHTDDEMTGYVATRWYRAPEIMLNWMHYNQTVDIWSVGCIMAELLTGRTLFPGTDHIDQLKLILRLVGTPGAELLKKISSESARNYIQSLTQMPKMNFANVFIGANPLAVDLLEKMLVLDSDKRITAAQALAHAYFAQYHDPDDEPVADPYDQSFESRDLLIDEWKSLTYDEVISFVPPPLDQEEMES

SMILES	activity on retesting at a higher concentration
Cn1cnc2c(N(C(N)=O)c3c(F)cccc3F)nc(-c3ccc(Cl)cc3)nc21 [Example 35, 1-[2-(4-chloro-phenyl)-9-methyl-9H-purin-6-yl]-1-(2,6-difluoro-phenyl)-urea]	active
Cn1cnc2c(N(C(N)=O)c3c(F)cccc3F)nc(-c3cc(F)cc(F)c3)nc21 [Example 46, 1-(2,6-difluoro-phenyl)-1-[2-(3,5-difluoro-phenyl)-9-methyl-9H-purin-6-yl]-urea]	active

same assay, conditions: yeast-expressed, activated and purified p38; 0.17 mM ATP; T669 peptide; read-out: positive inhibitory activity in the CSBP/p38 kinase assay at

SMILES	IC50 [µM]
Cc1ccc(-c2nc(Nc3c(F)cccc3F)c3ncn(C)c3n2)cc1 [Example 14, (2,6-difluoro-phenyl)-(9-methyl-2-p-tolyl-9H-purin-6-yl)-amine]	< 50
Cn1cnc2c(Nc3c(F)cccc3F)nc(-c3ccc(F)cc3F)nc21 [Example 19, (2,6-difluoro-phenyl)-[2-(2,4-difluoro-phenyl)-9-methyl-9H-purin-6 yl]-amine]	< 50
Cn1cnc2c(Nc3c(F)cccc3F)nc(-c3ccccc3F)nc21 [Example 17, (2,6-difluoro-phenyl)-[2-(2-fluoro-phenyl)-9-methyl-9H-purin-6-yl]-amine]	< 50
Fc1ccccc1-c1nc(Nc2c(F)cccc2F)c2ncn(Cc3ccccc3)c2n1 [Example 23]	< 50
CN(C)CCn1cnc2c(Nc3c(F)cccc3F)nc(-c3ccccc3F)nc21 [Example 22, (2,6-difluoro-phenyl)-[9-(2-dimethylamino-ethyl)-2-(2-fluoro-phenyl)-9H-purin-6-yl]-amine]	< 50
Cn1cnc2c(Nc3c(F)cccc3F)nc(-c3ccccc3Cl)nc21 [Example 11, [2-(2-chloro-phenyl)-9-methyl-9H-purin-6-yl]-(2,6-difluoro-phenyl)-amine]	< 50
